The values below come from ChEMBL document CHEMBL3046430, “Synthesis of some new 3,5-diamino-4-(4-fluorophenylazo)-1-aryl/heteroarylpyrazoles as antimicrobial agents” (2013).

Assay type in all cases: functional
Test [1] concerns Escherichia coli. As to the kind of experiment: Antibacterial activity against Escherichia coli at 2 to 64 ug/ml after 24 hr by agar well diffusion method.
Test [2] has as its system Saccharomyces cerevisiae. As to the kind of experiment: Antifungal activity against Saccharomyces cerevisiae after 7 days by agar well diffusion method. In general terms: A growth-free zone around the sample is the usual read-out of agar diffusion tests.
Test [3] concerns Aspergillus niger. As to the kind of experiment: Antifungal activity against Aspergillus niger at 2 to 64 ug/ml after 7 days by agar well diffusion method.
In test [4] the test system is Staphylococcus aureus. The experiment in a line: Antibacterial activity against Staphylococcus aureus at 2 to 64 ug/ml after 24 hr by agar well diffusion method.
The test system of test [5] is Candida albicans. As to the kind of experiment: Antifungal activity against Candida albicans at 2 to 64 ug/ml after 7 days by agar well diffusion method.
The subject of test [6] is Klebsiella aerogenes. As to the kind of experiment: Antibacterial activity against Enterobacter aerogenes at 2 to 64 ug/ml after 24 hr by agar well diffusion method.
For test [7], the system named is Saccharomyces cerevisiae. The experiment in a line: Antifungal activity against Saccharomyces cerevisiae at 2 to 64 ug/ml after 7 days by agar well diffusion method.
Test [8] has as its system Escherichia coli. The experiment in a line: Antibacterial activity against Escherichia coli after 24 hr by agar well diffusion method.
The test system of test [9] is Candida albicans. The experiment in a line: Antifungal activity against Candida albicans after 7 days by agar well diffusion method.
The subject of test [10] is Aspergillus niger. As to the kind of experiment: Antifungal activity against Aspergillus niger after 7 days by agar well diffusion method.
The test system of test [11] is Bacillus subtilis. The experiment in a line: Antibacterial activity against Bacillus subtilis at 2 to 64 ug/ml after 24 hr by agar well diffusion method.
The test system of test [12] is Staphylococcus aureus. The experiment in a line: Antibacterial activity against Staphylococcus aureus after 24 hr by agar well diffusion method.
The test system of test [13] is Klebsiella aerogenes. The experiment in a line: Antibacterial activity against Enterobacter aerogenes after 24 hr by agar well diffusion method.
Test [14] has as its system Bacillus subtilis. As to the kind of experiment: Antibacterial activity against Bacillus subtilis after 24 hr by agar well diffusion method.

Values after ≈ are worked out from the molar mass of the structure shown. Active and inactive are the calls of the source. The rule behind the calls is not given here.

In general, MIC refers to the lowest concentration found to suppress growth. Consider `Cc1ccc2nc(-n3nc(N)c(/N=N/c4ccc(F)cc4)c3N)sc2c1`, for which the result in the test with Escherichia coli [1], in the test with Aspergillus niger [3], in the test on Staphylococcus aureus [4], in the test on Saccharomyces cerevisiae [7] and with Bacillus subtilis [11] was inactive. The MIC result in the test with Saccharomyces cerevisiae [2], in the test with Escherichia coli [8], in the test on Aspergillus niger [10], with Staphylococcus aureus [12] and in the test with Bacillus subtilis [14] was “inactive” each time. The “diameter of the inhibition zone (DIZ)” value with Candida albicans [5] is given as 11 mm; with Klebsiella aerogenes [6], 10.5 mm. Further, the MIC in the test on Candida albicans [9] (168 h) and in the test with Klebsiella aerogenes [13] was 2 µg/mL (≈ 5.44 µM) each time.

For `Nc1nn(-c2ccccc2)c(N)c1/N=N/c1ccc(F)cc1`, the “diameter of the inhibition zone (DIZ)” value with Escherichia coli [1] was found to be 12 mm; with Candida albicans [5] it was 7 mm; with Klebsiella aerogenes [6], 12 mm; with Saccharomyces cerevisiae [7], 12 mm; in the test with Bacillus subtilis [11], 10 mm. In addition, the MIC in the test on Saccharomyces cerevisiae [2] (168 h) came to 4 µg/mL (≈ 13.5 µM); with Escherichia coli [8] it was 2 µg/mL (≈ 6.75 µM); in the test on Candida albicans [9] (168 h), 2 µg/mL (≈ 6.75 µM); with Klebsiella aerogenes [13], 32 µg/mL (≈ 108 µM); in the test on Bacillus subtilis [14], 8 µg/mL (≈ 27 µM). Also, the result in the test with Aspergillus niger [3] and in the test on Staphylococcus aureus [4] was inactive. For the same compound, the MIC result in the test on Aspergillus niger [10] and in the test with Staphylococcus aureus [12] was “inactive” in each case.

As for `OC(Cn1cncn1)(Cn1cncn1)c1ccc(F)cc1F` [FLUCONAZOLE], the result in the test with Escherichia coli [1], with Staphylococcus aureus [4], in the test on Klebsiella aerogenes [6] and in the test with Bacillus subtilis [11] was inactive. Besides, the minimum inhibitory concentration (MIC) in the test on Saccharomyces cerevisiae [2] (168 h) is 4 µg/mL (≈ 13.1 µM); with Candida albicans [9] (168 h), 2 µg/mL (≈ 6.53 µM); against Aspergillus niger [10] (168 h) it was 2 µg/mL (≈ 6.53 µM). The “diameter of the inhibition zone (DIZ)” value in the test with Aspergillus niger [3] is 13 mm; in the test on Candida albicans [5], 10 mm; with Saccharomyces cerevisiae [7], 12 mm. The MIC entry in the test with Escherichia coli [8], with Staphylococcus aureus [12], in the test with Klebsiella aerogenes [13] and in the test with Bacillus subtilis [14] was “inactive” throughout.

`Nc1nn(-c2ccc([N+](=O)[O-])cc2[N+](=O)[O-])c(N)c1/N=N/c1ccc(F)cc1`: the “diameter of the inhibition zone (DIZ)” value was determined as 13 mm in the test with Escherichia coli [1]; 10 mm with Aspergillus niger [3]; 11 mm with Candida albicans [5]; 13 mm in the test with Klebsiella aerogenes [6]; 12 mm in the test on Saccharomyces cerevisiae [7]; 10 mm with Bacillus subtilis [11]. Further, the MIC with Saccharomyces cerevisiae [2] (168 h) was determined as 8 µg/mL (≈ 20.7 µM); with Escherichia coli [8] it was 2 µg/mL (≈ 5.18 µM); against Candida albicans [9] (168 h) it was 2 µg/mL (≈ 5.18 µM); in the test on Aspergillus niger [10] (168 h), 2 µg/mL (≈ 5.18 µM); with Klebsiella aerogenes [13], 2 µg/mL (≈ 5.18 µM); in the test with Bacillus subtilis [14], 4 µg/mL (≈ 10.4 µM). In addition, in the test with Staphylococcus aureus [4], the outcome was inactive. In addition, in the test with Staphylococcus aureus [12], the MIC entry is “inactive”.

As for `Cc1cc(C)nc(-n2nc(N)c(/N=N/c3ccc(F)cc3)c2N)n1`, the result in the test on Escherichia coli [1], with Aspergillus niger [3] and in the test on Bacillus subtilis [11] was inactive. In addition, the MIC worked out at 8 µg/mL (≈ 24.5 µM) in the test on Saccharomyces cerevisiae [2] (168 h), 2 µg/mL (≈ 6.13 µM) with Candida albicans [9] (168 h), 16 µg/mL (≈ 49 µM) with Staphylococcus aureus [12] and 8 µg/mL (≈ 24.5 µM) with Klebsiella aerogenes [13]. Moreover, the “diameter of the inhibition zone (DIZ)” value is 4.5 mm in the test on Staphylococcus aureus [4], 9 mm in the test on Candida albicans [5], 9 mm in the test with Klebsiella aerogenes [6] and 10 mm with Saccharomyces cerevisiae [7]. Further, the MIC result in the test on Escherichia coli [8], in the test with Aspergillus niger [10] and with Bacillus subtilis [14] was “inactive” in each case.

As to `Nc1nn(-c2ccc(Cl)cc2)c(N)c1/N=N/c1ccc(F)cc1`, the result with Escherichia coli [1], in the test with Aspergillus niger [3], in the test with Staphylococcus aureus [4], in the test on Saccharomyces cerevisiae [7] and in the test with Bacillus subtilis [11] was inactive. For the same compound, the MIC entry in the test on Saccharomyces cerevisiae [2], in the test with Escherichia coli [8], in the test on Aspergillus niger [10], with Staphylococcus aureus [12] and in the test on Bacillus subtilis [14] was “inactive” throughout. Moreover, the “diameter of the inhibition zone (DIZ)” value in the test on Candida albicans [5] is 9 mm; with Klebsiella aerogenes [6], 12 mm. In addition, the MIC in the test with Candida albicans [9] (168 h) and with Klebsiella aerogenes [13] was 2 µg/mL (≈ 6.05 µM) throughout.

With `Nc1nn(-c2nc3ccc(F)cc3s2)c(N)c1/N=N/c1ccc(F)cc1`, the result in the test with Escherichia coli [1], with Staphylococcus aureus [4], with Candida albicans [5] and in the test with Saccharomyces cerevisiae [7] was inactive. The MIC result in the test with Saccharomyces cerevisiae [2], with Escherichia coli [8], in the test with Candida albicans [9] and in the test with Staphylococcus aureus [12] was “inactive” each time. For the same compound, the “diameter of the inhibition zone (DIZ)” value in the test on Aspergillus niger [3] is on record as 14 mm; with Klebsiella aerogenes [6], 11 mm; in the test on Bacillus subtilis [11] it was 12 mm. Moreover, the MIC in the test on Aspergillus niger [10] (168 h) worked out at 2 µg/mL (≈ 5.39 µM); against Klebsiella aerogenes [13], 4 µg/mL (≈ 10.8 µM); against Bacillus subtilis [14], 4 µg/mL (≈ 10.8 µM).

Take `Nc1nn(-c2nc3ccc(Cl)cc3s2)c(N)c1/N=N/c1ccc(F)cc1`: the outcome in the test with Escherichia coli [1], in the test on Aspergillus niger [3], in the test on Staphylococcus aureus [4], with Saccharomyces cerevisiae [7] and with Bacillus subtilis [11] was inactive. In addition, the MIC entry with Saccharomyces cerevisiae [2], in the test with Escherichia coli [8], with Aspergillus niger [10], with Staphylococcus aureus [12] and in the test with Bacillus subtilis [14] was “inactive” throughout. Besides, the “diameter of the inhibition zone (DIZ)” value turned out to be 12 mm in the test with Candida albicans [5] and 10 mm with Klebsiella aerogenes [6]. Also, the MIC against Candida albicans [9] (168 h) and against Klebsiella aerogenes [13] was 2 µg/mL (≈ 5.16 µM) throughout.

As for `Cc1cc(-n2nc(N)c(/N=N/c3ccc(F)cc3)c2N)nc2ccccc12`, the “diameter of the inhibition zone (DIZ)” value in the test with Escherichia coli [1] is 15 mm; with Staphylococcus aureus [4], 2.6 mm; in the test on Candida albicans [5] it was 10 mm; with Klebsiella aerogenes [6] it was 15 mm; in the test on Bacillus subtilis [11], 12 mm. For the same compound, the MIC result with Saccharomyces cerevisiae [2] and in the test on Aspergillus niger [10] was “inactive” in each case. Besides, the result in the test on Aspergillus niger [3] and with Saccharomyces cerevisiae [7] was inactive. In addition, the MIC in the test with Escherichia coli [8] was determined as 2 µg/mL (≈ 5.53 µM); with Candida albicans [9] (168 h), 64 µg/mL (≈ 177 µM); with Staphylococcus aureus [12], 2 µg/mL (≈ 5.53 µM); in the test with Klebsiella aerogenes [13], 8 µg/mL (≈ 22.1 µM); in the test on Bacillus subtilis [14], 4 µg/mL (≈ 11.1 µM).

With `C=CC1=C(C(=O)O)N2C(=O)[C@@H](NC(=O)/C(=N\OCC(=O)O)c3csc(N)n3)[C@H]2SC1` [CEFIXIME], the “diameter of the inhibition zone (DIZ)” value in the test on Escherichia coli [1] turned out to be 14 mm; in the test with Staphylococcus aureus [4] it was 2.9 mm; in the test with Klebsiella aerogenes [6] it was 15 mm; in the test on Bacillus subtilis [11], 2.8 mm. Also, the MIC entry in the test with Saccharomyces cerevisiae [2], in the test with Candida albicans [9] and in the test on Aspergillus niger [10] was “inactive” throughout. Besides, the result in the test with Aspergillus niger [3], in the test on Candida albicans [5] and in the test on Saccharomyces cerevisiae [7] was inactive. Besides, the MIC against Escherichia coli [8] worked out at 2 µg/mL (≈ 4.41 µM); in the test with Staphylococcus aureus [12], 2 µg/mL (≈ 4.41 µM); with Klebsiella aerogenes [13] it was 2 µg/mL (≈ 4.41 µM); against Bacillus subtilis [14], 4 µg/mL (≈ 8.82 µM).

Consider `Nc1nn(-c2nc3ccccc3s2)c(N)c1/N=N/c1ccc(F)cc1`, for which the “diameter of the inhibition zone (DIZ)” value in the test on Escherichia coli [1] amounted to 12 mm; with Candida albicans [5] it was 12 mm; in the test with Klebsiella aerogenes [6], 14 mm; with Saccharomyces cerevisiae [7], 9 mm; in the test with Bacillus subtilis [11] it was 9 mm. The MIC stood at 6 µg/mL (≈ 17 µM) in the test on Saccharomyces cerevisiae [2] (168 h); 8 µg/mL (≈ 22.6 µM) against Escherichia coli [8]; 2 µg/mL (≈ 5.66 µM) against Candida albicans [9] (168 h); 2 µg/mL (≈ 5.66 µM) with Klebsiella aerogenes [13]; 6 µg/mL (≈ 17 µM) in the test with Bacillus subtilis [14]. In addition, the outcome in the test with Aspergillus niger [3] and in the test on Staphylococcus aureus [4] was inactive. Besides, the MIC entry in the test with Aspergillus niger [10] and with Staphylococcus aureus [12] was “inactive” in each case.
